Source: US10766902B2, “Wee-1 inhibiting pyrazolopyrimidinone compounds” (ALMAC DISCOVERY LIMITED, priority 2016, dated 2020)
Where two headings read alike, the source gives them in different places.

Experiments:
Format in all cases: biochemical
FLT3 = FLT3 (Homo sapiens (Human), UniProt P36888); experiment: SelectScreen Kinase Profiling: FLT3; conditions: tested at 300-350 nM
From the text: (§1) Table 4 below highlights the selectivity of a representative compound of the invention, Example 5, against a panel of 50 kinases (assessed using the Invitrogen SelectScreen® Kinase Profiling Service).

MAP4K4 (HGK) = MAP4K4 (HGK) (Homo sapiens (Human), UniProt O95819); experiment: SelectScreen Kinase Profiling: MAP4K4 (HGK); conditions: tested at 300-350 nM
From the text: as §1

PAK4 = PAK4 (Homo sapiens (Human), UniProt O96013); experiment: SelectScreen Kinase Profiling: PAK4; conditions: tested at 300-350 nM
From the text: as §1

AMPK A1/B1/G1 = AMPK A1/B1/G1 (Homo sapiens (Human), UniProt Q13131); experiment: SelectScreen Kinase Profiling: AMPK A1/B1/G1; conditions: tested at 300-350 nM
From the text: as §1

SYK = SYK (Homo sapiens (Human), UniProt P43405); experiment: SelectScreen Kinase Profiling: SYK; conditions: tested at 300-350 nM
From the text: as §1

DYRK3 = DYRK3 (Homo sapiens (Human), UniProt O43781); experiment: SelectScreen Kinase Profiling: DYRK3; conditions: tested at 300-350 nM
From the text: as §1

Wee-1 kinase = Wee-1 kinase (Homo sapiens (Human), UniProt P30291); experiment: Measurement of Wee-1 kinase activity (ADP-Glo luminescence)
In short: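 Activated Wee-1 preincubated 30 min at RT with compound in Tris/MgCl2 buffer with BSA and DTT, then reacted 1 h at RT with poly(Lys,Tyr 4:1) (2.0 μg/mL) and 30 μM ATP as added aliquot. ADP formed measured by ADP-Glo luminescence; IC50 by non-linear regression of % inhibition.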

Wee-1 kinase, sequence (P30291 whole entry): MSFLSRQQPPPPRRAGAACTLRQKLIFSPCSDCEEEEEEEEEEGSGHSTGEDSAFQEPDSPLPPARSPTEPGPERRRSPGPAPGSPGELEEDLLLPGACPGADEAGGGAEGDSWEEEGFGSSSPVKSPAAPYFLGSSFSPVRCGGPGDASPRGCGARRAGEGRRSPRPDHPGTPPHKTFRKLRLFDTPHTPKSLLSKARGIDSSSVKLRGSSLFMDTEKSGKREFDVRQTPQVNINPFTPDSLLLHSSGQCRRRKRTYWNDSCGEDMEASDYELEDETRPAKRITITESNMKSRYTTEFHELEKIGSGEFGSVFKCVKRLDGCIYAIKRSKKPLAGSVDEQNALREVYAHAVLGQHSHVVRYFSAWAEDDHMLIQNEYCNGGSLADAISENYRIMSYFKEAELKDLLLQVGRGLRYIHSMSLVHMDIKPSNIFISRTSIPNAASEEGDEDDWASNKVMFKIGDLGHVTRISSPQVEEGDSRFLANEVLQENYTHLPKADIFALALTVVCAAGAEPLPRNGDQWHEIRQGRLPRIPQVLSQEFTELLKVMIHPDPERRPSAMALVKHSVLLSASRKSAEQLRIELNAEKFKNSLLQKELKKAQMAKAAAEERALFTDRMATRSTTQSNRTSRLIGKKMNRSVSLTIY
FLT3, sequence (P36888 27-993): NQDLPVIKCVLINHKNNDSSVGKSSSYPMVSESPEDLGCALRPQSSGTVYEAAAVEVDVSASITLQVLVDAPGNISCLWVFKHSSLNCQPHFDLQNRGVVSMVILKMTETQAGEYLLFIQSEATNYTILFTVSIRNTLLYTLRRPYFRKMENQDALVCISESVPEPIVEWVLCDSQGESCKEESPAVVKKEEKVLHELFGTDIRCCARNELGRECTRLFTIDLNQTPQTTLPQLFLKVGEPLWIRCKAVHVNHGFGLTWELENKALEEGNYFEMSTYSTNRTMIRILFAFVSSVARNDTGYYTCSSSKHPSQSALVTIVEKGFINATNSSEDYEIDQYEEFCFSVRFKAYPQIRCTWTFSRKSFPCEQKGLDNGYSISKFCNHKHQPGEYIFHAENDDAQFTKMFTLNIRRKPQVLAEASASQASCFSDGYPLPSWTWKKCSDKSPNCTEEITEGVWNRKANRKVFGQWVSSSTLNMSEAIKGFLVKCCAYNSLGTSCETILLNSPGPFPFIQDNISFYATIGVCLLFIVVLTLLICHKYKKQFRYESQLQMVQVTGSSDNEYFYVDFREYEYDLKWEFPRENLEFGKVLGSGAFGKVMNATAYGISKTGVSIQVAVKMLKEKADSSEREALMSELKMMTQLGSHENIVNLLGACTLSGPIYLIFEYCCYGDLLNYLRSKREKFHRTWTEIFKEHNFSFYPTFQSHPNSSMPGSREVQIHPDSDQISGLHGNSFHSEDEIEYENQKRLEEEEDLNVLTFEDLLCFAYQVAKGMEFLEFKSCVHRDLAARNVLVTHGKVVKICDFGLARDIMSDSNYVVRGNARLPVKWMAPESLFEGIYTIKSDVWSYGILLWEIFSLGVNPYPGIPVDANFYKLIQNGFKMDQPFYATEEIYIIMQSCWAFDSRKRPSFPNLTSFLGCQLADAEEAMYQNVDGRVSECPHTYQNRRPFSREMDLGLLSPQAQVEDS
AMPK A1/B1/G1, sequence (Q13131 whole entry): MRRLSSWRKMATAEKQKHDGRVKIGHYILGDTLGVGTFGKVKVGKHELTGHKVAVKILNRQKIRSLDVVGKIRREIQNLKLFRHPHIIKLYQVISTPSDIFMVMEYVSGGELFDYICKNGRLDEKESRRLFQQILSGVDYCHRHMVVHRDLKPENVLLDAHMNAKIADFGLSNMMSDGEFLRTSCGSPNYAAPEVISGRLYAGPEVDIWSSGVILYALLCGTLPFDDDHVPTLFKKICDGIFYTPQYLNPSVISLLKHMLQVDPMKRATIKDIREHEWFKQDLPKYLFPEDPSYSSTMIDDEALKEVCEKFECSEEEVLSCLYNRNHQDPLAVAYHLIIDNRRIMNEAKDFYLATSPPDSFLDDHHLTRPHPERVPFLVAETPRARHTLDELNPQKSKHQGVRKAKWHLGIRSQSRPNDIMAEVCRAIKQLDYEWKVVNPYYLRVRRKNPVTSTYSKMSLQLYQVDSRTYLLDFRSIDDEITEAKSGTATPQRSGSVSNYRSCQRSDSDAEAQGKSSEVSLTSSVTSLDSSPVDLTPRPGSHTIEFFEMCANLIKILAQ
AMPK A1/B1/G1, sequence (Q9Y478 whole entry partner): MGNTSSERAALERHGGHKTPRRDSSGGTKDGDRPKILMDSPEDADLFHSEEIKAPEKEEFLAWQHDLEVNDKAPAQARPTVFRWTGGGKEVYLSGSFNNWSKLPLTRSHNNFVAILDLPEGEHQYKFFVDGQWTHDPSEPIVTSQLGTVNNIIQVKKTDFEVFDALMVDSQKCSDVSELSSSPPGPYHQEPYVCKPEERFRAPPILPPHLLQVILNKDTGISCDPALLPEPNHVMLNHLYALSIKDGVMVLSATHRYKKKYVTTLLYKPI
AMPK A1/B1/G1, sequence (P54619 whole entry partner): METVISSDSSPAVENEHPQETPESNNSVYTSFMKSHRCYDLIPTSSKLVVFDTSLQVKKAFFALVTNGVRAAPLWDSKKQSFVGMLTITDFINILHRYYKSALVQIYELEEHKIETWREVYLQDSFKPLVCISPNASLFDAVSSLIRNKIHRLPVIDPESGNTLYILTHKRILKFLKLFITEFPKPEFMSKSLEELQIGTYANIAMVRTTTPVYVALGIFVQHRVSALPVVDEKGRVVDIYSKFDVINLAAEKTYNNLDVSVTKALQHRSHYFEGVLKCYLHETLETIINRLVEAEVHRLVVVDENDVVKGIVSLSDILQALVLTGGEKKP
DYRK3, sequence (O43781 whole entry): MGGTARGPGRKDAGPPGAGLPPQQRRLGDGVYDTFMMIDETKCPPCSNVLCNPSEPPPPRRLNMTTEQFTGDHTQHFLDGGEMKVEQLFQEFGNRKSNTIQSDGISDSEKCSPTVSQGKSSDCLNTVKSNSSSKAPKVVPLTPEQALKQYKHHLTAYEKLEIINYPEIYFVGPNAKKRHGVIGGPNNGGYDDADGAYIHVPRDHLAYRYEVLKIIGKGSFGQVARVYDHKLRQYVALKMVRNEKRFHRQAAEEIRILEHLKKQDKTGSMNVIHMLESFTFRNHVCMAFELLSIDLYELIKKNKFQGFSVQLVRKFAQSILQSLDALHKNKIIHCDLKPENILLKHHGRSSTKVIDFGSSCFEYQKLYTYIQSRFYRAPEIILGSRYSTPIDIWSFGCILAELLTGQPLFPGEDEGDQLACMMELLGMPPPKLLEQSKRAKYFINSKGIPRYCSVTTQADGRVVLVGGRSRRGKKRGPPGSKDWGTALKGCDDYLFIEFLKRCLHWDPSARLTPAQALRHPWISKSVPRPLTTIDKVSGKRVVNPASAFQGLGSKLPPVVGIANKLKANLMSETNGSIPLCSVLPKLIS
MAP4K4 (HGK), sequence (O95819 whole entry): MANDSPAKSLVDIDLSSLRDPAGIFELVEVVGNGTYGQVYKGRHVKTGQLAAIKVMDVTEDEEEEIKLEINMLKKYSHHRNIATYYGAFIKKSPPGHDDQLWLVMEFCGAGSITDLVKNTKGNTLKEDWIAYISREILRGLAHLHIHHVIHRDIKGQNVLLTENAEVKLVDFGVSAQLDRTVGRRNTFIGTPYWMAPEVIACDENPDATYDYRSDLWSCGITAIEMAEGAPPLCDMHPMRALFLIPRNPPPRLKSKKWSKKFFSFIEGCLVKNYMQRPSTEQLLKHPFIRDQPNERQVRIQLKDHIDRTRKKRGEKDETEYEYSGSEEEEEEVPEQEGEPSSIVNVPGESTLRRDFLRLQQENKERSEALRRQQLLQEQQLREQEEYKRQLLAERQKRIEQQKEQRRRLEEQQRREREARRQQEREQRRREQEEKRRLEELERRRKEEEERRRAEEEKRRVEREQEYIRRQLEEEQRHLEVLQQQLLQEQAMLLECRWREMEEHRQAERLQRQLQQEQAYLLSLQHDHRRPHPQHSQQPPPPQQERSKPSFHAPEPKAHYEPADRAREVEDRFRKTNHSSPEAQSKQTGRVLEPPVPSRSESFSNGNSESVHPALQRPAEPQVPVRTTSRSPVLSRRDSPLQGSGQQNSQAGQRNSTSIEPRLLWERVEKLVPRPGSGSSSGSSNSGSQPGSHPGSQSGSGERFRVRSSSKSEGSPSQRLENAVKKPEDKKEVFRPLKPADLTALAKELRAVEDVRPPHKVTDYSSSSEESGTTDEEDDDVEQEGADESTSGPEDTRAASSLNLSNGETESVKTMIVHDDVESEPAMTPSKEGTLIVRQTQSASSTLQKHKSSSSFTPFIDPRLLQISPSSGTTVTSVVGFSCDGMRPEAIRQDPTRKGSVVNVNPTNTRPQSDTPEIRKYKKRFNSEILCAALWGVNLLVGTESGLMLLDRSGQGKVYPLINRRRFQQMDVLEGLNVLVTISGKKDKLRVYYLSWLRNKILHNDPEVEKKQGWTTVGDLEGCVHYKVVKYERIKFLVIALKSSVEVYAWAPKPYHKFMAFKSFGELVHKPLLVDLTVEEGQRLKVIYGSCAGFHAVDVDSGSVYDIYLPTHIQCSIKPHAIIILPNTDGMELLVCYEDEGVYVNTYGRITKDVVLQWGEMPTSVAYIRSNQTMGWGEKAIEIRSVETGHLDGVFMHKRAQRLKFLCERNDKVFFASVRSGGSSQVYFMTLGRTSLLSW

- IC50 (Wee-1 kinase; Table 5, data obtained as described in the experimental section of the current invention, read-out: Wee-1/nM): 1.2 nM
- IC50 (Wee-1 kinase; Table 7, data obtained as described in the experimental section of the current invention, read-out: Wee-1/nM): 1.2 nM
- IC50 (Wee-1 kinase; read-out: Wee1 IC50): 1.2 nM
Compound: C=CCn1c(=O)c2cnc(Nc3ccc(N4CCN(C)CC4)cc3)nc2n1-c1cccc(N=S(C)(C)=O)n1 [Example 5, 1-(6-{[Dimethyl(oxo)-λ^6-sulfanylidene]amino}pyridine-2-yl)-6-{[4-(4-methylpiperazin-1-yl)phenyl]amino}-2-(prop-2-en-1-yl)-1H,2H,3H-pyrazolo[3,4-d]pyrimidin-3-one]
- inhibition of FLT3 (FLT3): − (inhibition under 50% (tested at 300-350 nM))
- inhibition of MAP4K4 (HGK) (MAP4K4 (HGK)): − (inhibition under 50% (tested at 300-350 nM))
- inhibition of PAK4 (PAK4): − (inhibition under 50% (tested at 300-350 nM))
- inhibition of AMPK A1/B1/G1 (AMPK A1/B1/G1): − (inhibition under 50% (tested at 300-350 nM))
- inhibition of SYK (SYK): − (inhibition under 50% (tested at 300-350 nM))
- inhibition of DYRK3 (DYRK3): − (inhibition under 50% (tested at 300-350 nM))
